Laboratory results as given in article PMC5351510 (Future Science OA, 2017).
Converted amounts (≈) assume the structure as drawn. Where two headings read alike, the source gives them in different places.

Legend:
[1] = Partition coefficient (log P), shake-flask octanol/water; assay type: physicochemical; conditions: experimental, 25.0 ± 0.1°C
Protocol: Lipophilicity is a molecular property of any compound that is vital to discern the extent of distribution in the body. The logarithm of octanol/water partition coefficient, in other words, log P, is the most extensively used parameter to quantify lipophilicity. The value of log P is a valuable predictor to determine the passive transport of drugs through the lipoid membranes of the human body. […] For this, first presaturation of the solvents (octanol and water) was conducted for 24 h. Then, Mgf in a concentration of 5 mg/100 ml was added to the equilibrated mixture. After separation of the equilibrated phases by centrifugation at 10,000 r.p.m. for 5 min, the concentration of the solute was determined in the aqueous phase using HPTLC at a λmax 262 nm for each sample:Equation 1 [drawing 2]

P-gp = conditions: cited from earlier work
[2] = In situ single pass intestinal perfusion studies; assay type: in vivo, Wistar rats; conditions: both sexes, Wistar, other: in situ single pass perfusion of the jejunum; experimental, rat jejunum, perfusion rate 0.2 ml/min
Protocol: The in situ single pass intestinal perfusion studies were performed in a manner reported previously by our group in the past. Three unisex Wistar rats (250–280 g) were fasted for at least 24 h prior to the study, while water was provided ad libitum. The animals were procured from University Centre Animal House, after obtaining the requisite approval from Animals Institutional Committee, Chandigarh (PU/IAEC/S/14/104). Anesthesia was induced by an intraperitoneal injection of thiopental sodium in the dose of 50 mg/kg of the body weight of the rats. After making an incision in the abdomen, provisions for inlet and outlet were made at proximal part of the jejunum, 2–4 cm below the ligament of Trietz and about 10 cm distal to the first incision. […] Finally, 1.5 ml of perfusate was added to the ethereal extract and the concentration of Mgf in the mixture was determined using HPTLC technique at 254 nm by applying the principles of Analytical Quality by Design. The value of effective permeability (Peff) was subsequently calculated using Equation 3 [31].Equation 3 [drawing 4]
where Q is the flow rate, Cin and Cout are the respective inlet and outlet concentrations, r is the radius of the intestine and l is the length of the intestine measured after completion of perfusion.

[3] = Determination of log D, aqueous phase pH 7.4; assay type: physicochemical; conditions: octanol / physiological buffer (aqueous phase at pH 7.4), experimental
Description: Log D, the logarithm of distribution constant or apparent partition, therefore, is a better descriptor of the lipophilicity of an ionizable compound that is likely to be charged at the physiological pH [26]. This can be determined in a similar manner to log P, but the aqueous phase, instead of being pure water, is adjusted to pH 7.4 using a physiological buffer:Equation 2 [drawing 3]

[4] = cited from earlier work
MDR1 transporters = target: T1, MDR1 transporters (Homo sapiens, UniProt P08183); test: P-gp efflux assay (multidrug resistance direct dye efflux kit), Rhodamine-123 dye; assay type: cell-based; conditions: experimental, Caco-2 cells
T1 construct: overexpressed MDR1, MRP1 and BCRP membrane pumps on Caco-2 cells; endogenous in cells; host or cells: Caco-2 cells
T1 sequence (P08183 whole entry): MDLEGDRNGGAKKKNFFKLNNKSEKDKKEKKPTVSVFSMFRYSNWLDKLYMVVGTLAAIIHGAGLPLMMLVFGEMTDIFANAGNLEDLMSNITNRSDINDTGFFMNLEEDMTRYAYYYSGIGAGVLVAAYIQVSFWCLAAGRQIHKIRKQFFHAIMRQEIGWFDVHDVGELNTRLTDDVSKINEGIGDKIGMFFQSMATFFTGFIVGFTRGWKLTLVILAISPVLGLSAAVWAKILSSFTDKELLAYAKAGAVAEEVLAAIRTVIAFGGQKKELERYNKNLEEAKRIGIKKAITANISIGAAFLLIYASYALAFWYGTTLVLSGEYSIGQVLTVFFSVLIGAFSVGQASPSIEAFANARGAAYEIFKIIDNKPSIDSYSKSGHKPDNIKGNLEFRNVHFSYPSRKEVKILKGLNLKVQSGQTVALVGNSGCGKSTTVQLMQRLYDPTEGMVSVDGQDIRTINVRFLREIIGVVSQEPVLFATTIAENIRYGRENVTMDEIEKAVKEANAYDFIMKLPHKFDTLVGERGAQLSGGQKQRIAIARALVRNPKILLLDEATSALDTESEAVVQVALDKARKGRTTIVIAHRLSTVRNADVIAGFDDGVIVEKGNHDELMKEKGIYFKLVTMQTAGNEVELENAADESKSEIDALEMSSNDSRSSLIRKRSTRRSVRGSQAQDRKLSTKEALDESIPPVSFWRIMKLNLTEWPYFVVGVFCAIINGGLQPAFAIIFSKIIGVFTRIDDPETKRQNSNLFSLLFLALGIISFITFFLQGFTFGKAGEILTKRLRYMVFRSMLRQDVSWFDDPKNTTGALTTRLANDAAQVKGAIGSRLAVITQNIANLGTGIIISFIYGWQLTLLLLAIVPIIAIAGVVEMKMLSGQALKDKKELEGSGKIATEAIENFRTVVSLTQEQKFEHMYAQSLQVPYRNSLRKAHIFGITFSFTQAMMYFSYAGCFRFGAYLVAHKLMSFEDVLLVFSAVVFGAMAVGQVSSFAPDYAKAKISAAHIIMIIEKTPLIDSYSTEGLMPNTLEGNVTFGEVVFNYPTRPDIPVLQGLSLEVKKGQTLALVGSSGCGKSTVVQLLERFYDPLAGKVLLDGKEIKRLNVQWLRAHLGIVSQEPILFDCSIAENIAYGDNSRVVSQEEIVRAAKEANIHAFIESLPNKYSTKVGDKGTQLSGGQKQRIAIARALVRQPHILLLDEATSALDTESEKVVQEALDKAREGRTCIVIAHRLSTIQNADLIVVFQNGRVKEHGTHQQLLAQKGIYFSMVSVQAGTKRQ
Protocol: Furthermore, the multidrug resistance directs dye efflux assay kit (Chemicon® International, CA, USA and Serologicals® Corporations, GA, USA) was employed, in which the Caco-2 cells were loaded with rhodamine 123 (Rh-123) and diethyloxacarbocyanine (DiOC2) dyes in the presence or absence of vinblastine. In order to access the functional activity of the inhibition of overexpressed MDR1, MRP1 and BCRP membrane pumps on Caco-2 cells in the presence of Mgf, the fluorescence intensity was measured in a Tecan fluorescence microplate reader (Tecan Ltd, Männedorf, Switzerland) at an excitation wavelength of 485 nm and an emission wavelength of 530 nm. For the purpose, Caco-2 cells in the concentration of 2.5 × 10^5 were incubated with Rh-123 alone and with vinblastine, and Rh-123-loaded Mgf at 37°C to access the inhibitory activity of Mgf on MDR1 transporters. Likewise, to estimate the ability of Mgf to act as a substrate for BCRP transportors, DiOC2 dye was employed. On the similar heels, Caco-2 cells (2.5 × 10^5) were incubated with DiOC2 alone and with vinblastine, and DiOC2-loaded Mgf at 37°C.

[5] = cited from earlier work; remark: listed apart in the source
[6] = Equilibrium solubility studies (shaker, HPTLC); assay type: physicochemical; conditions: experimental, at 25°C, mean of three
Protocol: Equilibrium solubility is the most vital physicochemical property that reflects the bioavailability of a compound. […] The equilibrated samples were centrifuged at 5000 r.p.m. (1398 × g) for 10 min to remove any undissolved drug and the supernatant was analyzed using HPTLC at a λmax of 262 nm. All the media were prepared according to the composition reported by Dressman and co-workers.

[7] = at 45°C; cited from earlier work

Question: For `O=c1c2cc(O)c(O)cc2oc2cc(O)c([C@@H]3O[C@H](CO)[C@@H](O)[C@H](O)[C@H]3O)c(O)c12` [mangiferin, (1S)-1,5-Anhydro-1-(1,3,6,7-tetrahydroxy-9-oxo-9H-xanthen-2-yl)-D-glucitol], which logP [1] is on record?
Answer: The logP was -0.65.

Question: What about the P-gp substrate (P-gp) of the same compound?
Answer: The P-gp substrate was “Yes”.

Question: What about the effective permeability (Peff) [2] of the same compound?
Answer: Its effective permeability (Peff) is 16 ×10⁻⁶ cm/s.

Question: What about the logD [3] of the same compound?
Answer: Its logD is -0.79.

Question: What about the “log P” value [4] of the same compound?
Answer: The value was -0.09 to -0.36.

Question: What about the P-gp substrate (MDR1 transporters) of the same compound?
Answer: The P-gp substrate was “Yes”.

Question: And the “AUC0–t rise in streptozotocin-induced diabetic rats compared with normal rats” value ([5]; plasma)?
Answer: Its value is 2.35 fold.

Question: What about the “Cmax rise in streptozotocin-induced diabetic rats compared with normal rats” value ([5]; plasma) of the same compound?
Answer: The value was 2.79 fold.

Question: What about the Maximum plasma levels ([5]; rats, oral) of the same compound?
Answer: Its Maximum plasma levels is 715.04 ± 600.14 ng/mL.

Question: And the “Time of maximum plasma levels after oral intake” value ([5]; rats, oral)?
Answer: The value was 0.72 h.

Question: And the solubility at 72 h ([6]; fasted-state simulated gastric fluid, read-out: Solubility in fasted-state simulated gastric fluid)?
Answer: The solubility at 72 h was 140 µg/mL (≈ 331 µM).

Question: What about the solubility at 72 h ([6]; fasted-state simulated intestinal fluid, fassif, thermodynamic from solid, read-out: Solubility in fasted-state simulated intestinal fluid) of the same compound?
Answer: Its solubility at 72 h is 1480 µg/mL (≈ 3500 µM).

Question: And the solubility at 72 h ([6]; fed-state simulated intestinal fluid, fessif, thermodynamic from solid, read-out: Solubility in fed-state simulated intestinal fluid)?
Answer: Its solubility at 72 h is 3980 µg/mL (≈ 9420 µM).

Question: What about the solubility at 72 h ([6]; thermodynamic from solid, water, read-out: Aqueous solubility) of the same compound?
Answer: The solubility at 72 h was 380 µg/mL (≈ 900 µM).

Question: And the Aqueous solubility [7]?
Answer: The Aqueous solubility was 0.25 mg/ml at 45 °C.
